Patent US5387516A, “Heat stable debranching enzyme from a Bacillus microorganism” (priority 1992, dated 1995)
Like-named read-outs stand apart in the source and are kept apart here.

What was measured:
Type in all cases: biochemical
[1] = test system: debranching enzyme (α-1,6-glucosidase) of the invention from Bacillus sp. APC-9603
Experimental: (§1) To 0.5 ml of a 1% pullulan solution in a 100 mM McIlvaine's buffer solution (pH=5.0) was added 0.5 ml of an enzyme solution, and the system was allowed to react at 50° C. for 30 minutes. The reducing power thus produced was quantitatively determined through a 3,5-dinitrosalicylic acid reaction (the DNS method; cf. Borel et al., Helv. Chim. Acta., 35, 115 (1952)). The activity producing reducing power corresponding to 1 μmol of maltotriose for 1 minute was taken as one unit.

[2] = test system: DB-250 (Amano Pharmaceutical Co., Ltd.), Enzyme B, debranching enzyme from Bacillus sectorramus
Experimental: as §1

[3] = test system: Promozyme (Novo Nordisk A/S), Enzyme A, debranching enzyme from Bacillus acidopullulyticus
Experimental: as §1

[4] = Table 5, inhibitor 1 mM, 50 mM acetic acid buffer pH 5.0, 40° C., 30 minutes
[5] = inhibitor at final concentration 1 mM, 50 mM acetic acid buffer pH 5.0, 40° C., 30 minutes, no inhibitor = 100
[6] = Table 5, conditions not restated

SMILES	Influence of Inhibitor (residual activity), Enzyme of Invention ([1]; pH 5)	Inhibition (in words) ([1]; pH 5)	Residual Activity ([1]; pH 5)	Influence of Inhibitor (residual activity), Enzyme B [2]	Influence of Inhibitor (residual activity), Enzyme A [3]	Influence of Inhibitor (residual activity), Enzyme of Invention [1, 4]	Residual Activity [1, 5]	Influence of Inhibitor (residual activity), Enzyme B [2, 6]	Influence of Inhibitor (residual activity), Enzyme A [3, 6]	Inhibition (in words) ([1]; inhibitor 1 mM, pH 5.0, 40° C., 30 minutes)	Inhibition (in words), Enzyme B [2]	Inhibition (in words), Enzyme A [3]
O=C(O)CI [MIA, monoiodoacetic acid]	105%	Non-inhibited	105%	67%	68%							
O=C(O)CN(CCN(CC(=O)O)CC(=O)O)CC(=O)O [EDTA]	90%	Slightly inhibited	90%	93%	129%							
CCN1C(=O)C=CC1=O [N-EMI, N-ethylmaleimide]		Non-inhibited				104%	104%	66%	69%			
O=C(O)c1cc[c]([Hg][OH])cc1 [p-CMB, p-mercuri-benzoic acid]						81%	81%	27%	14%	Slightly inhibited	inhibited by p-CMB to a large extent	inhibited by p-CMB to a large extent
